Common to all, as to format: cell-based
The subject of experiment [1] is Bordetella attachment and invasion into human melanoma cell line Skmel-23/C22. As to the method:
Bordetella pertussis was cultured for 48-72 h on Bordet-Gengou agar plates (Remel, Inc.) in a 37° C. incubator. Prior to exposure of bacteria to mammalian cells (15-30 minutes), the bacteria were loop-transferred to Luria-Bertani (LB) liquid growth medium and adjusted to a concentration of 10^9 cfu/ml (OD600=0.5). Human Skmel-23/C22 metastatic melanoma cells, normal human melanocytes, or normal human fibroblasts were inoculated into Corning 12 well tissue culture plates (2-4×10^4 cells/well) in antibiotic-free DMEM growth medium supplemented with 10% fetal bovine serum, and placed in a gassed, humidified incubator, at 37° C. After 24 h, melanoma cells were fed with 1 ml fresh medium, and 15-20 h later, Bordetella pertussis strain 536 was added as described below. Potential inhibitors of Bordetella attachment and invasion of melanoma cells were added immediately before, or up to 2 h before addition of bacteria, as noted. […] Melanoma cells were then plated onto Bordet-Gengou agar plates in serial dilutions, incubated at 37° for 4d, and Bordetella pertussis were quantitated by colony counts as ‘colony forming units’ (cfu). […]
Structural requirements on cancer cells for attachment and invasion of B. pertussis. Quantitative invasion assays were carried out with various additives to investigate structural requirements on human melanoma cells for attachment and invasion of B. pertussis. […]

Experiment [2] relates to SKMel-23 human melanoma cells. The conditions noted are these: L-histidine alone, no B. pertussis strain. The procedure:
Skmel-23/C22 human melanoma cells were cultured 15 h with or without the addition of B. pertussis to the culture medium.
(§1) Cancer cells tested were human carcinomas of the breast, lung, and kidney, and melanoma. Toxicity of B. pertussis strain 536, but not of Tohama I, was dependent on the simultaneous addition of rich nutrient broth such as Luria-Bertani bacterial growth medium, or amino acid-rich broths such as tryptone or casamino acids. […] The principal active ingredient in these broths was the amino acid histidine. […] Of 18 amino acids tested, only histidine induced a Bordetella-mediated cytotoxic/lytic effect.

The subject of experiment [3] is human carcinomas of the breast, lung, and kidney, and melanoma. The settings on record: without bacteria.
From the text: as §1

Where two headings read alike, the source gives them in different places.

Consider `C[C@H](O)[C@@H](O)[C@@H](O)[C@H](O)C=O` [L-fucose], for which the “Bordetella (cfu/well) (% Control +/− S.D.)” value in experiment [1] (0.2% wt/vol, added 5 min. prior to bacteria, implied target fucosylated structures) turned out to be 52 ± 14 % Control.

Turning to `N[C@@H](Cc1c[nH]cn1)C(=O)O` [L-histidine], the “melanoma cells/well (24 h post-treatment)” value in experiment [2] is on record as 1.7 ± .07 × 10^5 melanoma cells/well. Also, in experiment [2] (24 h post-treatment), the “melanoma cells/well, % untreated cultures” value was found to be 106 % untreated cultures. Moreover, the “toxicity of histidine alone” value in experiment [3] is reported as “no toxicity”.

On to Arg-Gly-Asp [RGD], for which, in experiment [1] (0.8 mg/ml, added 2 h prior to bacteria, implied target Arg-Gly-Asp tripeptide sequence), the “Bordetella (cfu/well) (% Control +/− S.D.)” value was found to be 50 ± 5 % Control.

The values are drawn from patent publication US20050026866A1 (priority 2002, published 2005).
